Some test systems named below: UACC-257; Hs-578T; 786-0; SF-295; A498; KM12; HT-29; HCT-116; MCF7; SK-MEL-2; NCI-H226; CCRF-CEM; OVCAR-4; DU-145; SF-539; MDA-MB-231; SK-MEL-5; M14; IGROV-1; SK-MEL-28.
Common to all, as to test: NCI anticancer screen, dose series, 48 h

Molecules are shown by their SMILES.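 Dose response: 5 concentrations. Exposure: 48 h. Format: 96-well plates. Endpoint: linear interpolation; highest concentration if not reached. Here, GI50 denotes the concentration required for 50% inhibition of growth.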 The source made the active and inactive calls. Rule as the data show it: active = GI50 up to about 1.1 µM and inactive = higher. Bounds are passed on as bounds.

As to `Cn1cnc(N2CCCC2)c(C#N)c1=S`, the GI50 with UACC-257, in the test with Hs-578T, with 786-0, in the test on SF-295, with A498 and in the test with KM12 was > 100 µM (inactive) each time. The GI50 in the test on HT-29, in the test with HCT-116, in the test on MCF7, with SK-MEL-2, with NCI-H226 and in the test with CCRF-CEM was > 100 µM (inactive) throughout. Further, the GI50 with OVCAR-4, with DU-145, in the test on SF-539, in the test with MDA-MB-231, in the test with SK-MEL-5 and in the test on M14 was > 100 µM (inactive) throughout. For the same compound, the GI50 in the test on IGROV-1 and in the test on SK-MEL-28 was > 100 µM (inactive) throughout.
`C=CCC1C2CCC(O[Si](C(C)C)(C(C)C)C(C)C)(C(C(=O)OC)C2)C1O` (stereo not given): the GI50 in the test on UACC-257 was 38.3 µM (inactive); in the test with Hs-578T it was 23.6 µM (inactive); in the test on 786-0, 17.2 µM (inactive); in the test with SF-295, 23.4 µM (inactive); in the test on A498 it was > 100 µM (inactive); in the test on KM12, 54.5 µM (inactive). Besides, the GI50 in the test with HT-29 is 53.7 µM (inactive); with HCT-116 it was 19.5 µM (inactive); in the test with MCF7, 35.4 µM (inactive); with SK-MEL-2, 41.9 µM (inactive); with NCI-H226, > 100 µM (inactive); with CCRF-CEM it was 60.8 µM (inactive). Moreover, the GI50 in the test on OVCAR-4 was > 100 µM (inactive); in the test on DU-145 it was > 100 µM (inactive); in the test with SF-539, > 100 µM (inactive); in the test on MDA-MB-231, > 100 µM (inactive); in the test with SK-MEL-5, 53 µM (inactive); with M14 it was 94.8 µM (inactive). Moreover, the values for the GI50 with IGROV-1 and in the test with SK-MEL-28 were 69.2 µM (inactive) and 65.8 µM (inactive), respectively.
Consider `CCN1CCC(O)(c2ccc([N+](=O)[O-])cc2)C(C(=O)c2ccc([N+](=O)[O-])cc2)C1` (stereo not given), for which the GI50 with UACC-257 is 17.9 µM (inactive); in the test with Hs-578T it was 23.2 µM (inactive); in the test on 786-0 it was 15.5 µM (inactive); with SF-295, > 100 µM (inactive); in the test on A498 it was 22 µM (inactive); in the test with KM12 it was 17 µM (inactive). Besides, the GI50 in the test with HT-29 is 32.1 µM (inactive); with HCT-116, 17.2 µM (inactive); in the test with MCF7, 15.4 µM (inactive); in the test with SK-MEL-2, 43.2 µM (inactive); in the test with NCI-H226, 26.3 µM (inactive); in the test with CCRF-CEM, 11.9 µM (inactive). Also, the GI50 was 25.9 µM (inactive) in the test with OVCAR-4; 17.7 µM (inactive) in the test on DU-145; 14.3 µM (inactive) in the test with SF-539; 25.8 µM (inactive) in the test with MDA-MB-231; 18.1 µM (inactive) in the test with SK-MEL-5; 18.1 µM (inactive) in the test with M14. The GI50 was 18.2 µM (inactive) with IGROV-1 and 16.6 µM (inactive) with SK-MEL-28.
Take `Cc1cccc(C)c1NC(=O)/C(Cc1nc2ccc([N+](=O)[O-])cc2nc1O)=N\NC(N)=O`: the GI50 with UACC-257 is > 100 µM (inactive); in the test on Hs-578T it was > 100 µM (inactive); with 786-0 it was > 100 µM (inactive); with SF-295, > 100 µM (inactive); in the test with A498, 82.4 µM (inactive); in the test on KM12, 57.5 µM (inactive). In addition, the GI50 in the test on HT-29 was > 100 µM (inactive); in the test with HCT-116, 83.2 µM (inactive); with MCF7 it was 63.1 µM (inactive); in the test with SK-MEL-2, > 100 µM (inactive); with NCI-H226, > 100 µM (inactive); in the test with CCRF-CEM, 19.6 µM (inactive). Also, the GI50 is 90.6 µM (inactive) in the test with OVCAR-4; > 100 µM (inactive) in the test with DU-145; > 100 µM (inactive) in the test with SF-539; > 100 µM (inactive) in the test on MDA-MB-231; > 100 µM (inactive) with SK-MEL-5; > 100 µM (inactive) in the test with M14. For the same compound, the GI50 with IGROV-1 is 89.3 µM (inactive); with SK-MEL-28, > 100 µM (inactive).
For `Brc1ccc2c(-c3csc(-c4c[nH]c5cc(Br)ccc45)n3)c[nH]c2c1`, the GI50 was > 65.9 µM (inactive) in the test on UACC-257; 23 µM (inactive) in the test on Hs-578T; 22 µM (inactive) with 786-0; 9.31 µM (inactive) in the test with SF-295; 37.1 µM (inactive) with A498; 11.8 µM (inactive) with KM12. For the same compound, the GI50 in the test on HT-29 is 15.8 µM (inactive); in the test on HCT-116, 14.5 µM (inactive); in the test with MCF7, 11.8 µM (inactive); with SK-MEL-2 it was > 83 µM (inactive); in the test on NCI-H226, 30.5 µM (inactive); in the test with CCRF-CEM, 10.2 µM (inactive). For the same compound, the GI50 in the test on OVCAR-4 was 31 µM (inactive); in the test on DU-145, 19.5 µM (inactive); with SF-539, 19.6 µM (inactive); in the test with MDA-MB-231, 21 µM (inactive); in the test with SK-MEL-5, 42.2 µM (inactive); with M14, 17.7 µM (inactive). In addition, the GI50 in the test on IGROV-1 was 17 µM (inactive); in the test with SK-MEL-28 it was 46.6 µM (inactive).
Turning to `O=C(/C=C/NC(=O)OCc1ccccc1)OCc1ccccc1`, the GI50 in the test with UACC-257, in the test with Hs-578T, in the test with 786-0, in the test with SF-295, with A498 and in the test with KM12 was > 100 µM (inactive) in each case. For the same compound, the GI50 in the test on HT-29, in the test with HCT-116, in the test on MCF7, in the test with SK-MEL-2, with NCI-H226 and in the test on CCRF-CEM was > 100 µM (inactive) throughout. Besides, the GI50 in the test with OVCAR-4 is > 100 µM (inactive); in the test on DU-145, > 100 µM (inactive); in the test with SF-539, 64.9 µM (inactive); with MDA-MB-231 it was 28.1 µM (inactive); in the test on SK-MEL-5 it was > 100 µM (inactive); with M14 it was > 100 µM (inactive). For the same compound, the GI50 in the test on IGROV-1 and in the test on SK-MEL-28 was > 100 µM (inactive) each time.
Regarding `O=C(CCC1OCCO1)Nc1cc(NCc2ccccc2)ccc1OCc1ccccc1`, the GI50 with UACC-257 was 20.2 µM (inactive); in the test with Hs-578T, 34.3 µM (inactive); in the test on 786-0, > 100 µM (inactive); with SF-295, 30.2 µM (inactive); in the test with A498, 30.5 µM (inactive); with KM12, 30.1 µM (inactive). The GI50 in the test on HT-29 is 27.7 µM (inactive); with HCT-116 it was 48.9 µM (inactive); in the test on MCF7, 33.6 µM (inactive); in the test with SK-MEL-2, 21 µM (inactive); in the test on NCI-H226 it was 38.4 µM (inactive); in the test on CCRF-CEM it was 17 µM (inactive). The GI50 with OVCAR-4 was 31.8 µM (inactive); in the test with DU-145 it was 50.5 µM (inactive); in the test on SF-539, 30.4 µM (inactive); in the test on MDA-MB-231, 42 µM (inactive); in the test with SK-MEL-5, 18.4 µM (inactive); in the test on M14, 59.6 µM (inactive). Moreover, the figures for the GI50 with IGROV-1 and with SK-MEL-28 were 41.6 µM (inactive) and 64.7 µM (inactive), respectively.
Regarding `CCCCSCc1nc2nc(Cl)c(Cl)nc2[nH]1`, the GI50 is 16.1 µM (inactive) in the test on UACC-257; 35.6 µM (inactive) in the test with Hs-578T; 25.6 µM (inactive) in the test on 786-0; 14.5 µM (inactive) in the test on SF-295; 21.8 µM (inactive) in the test with A498; 29.8 µM (inactive) with KM12. Moreover, the GI50 in the test with HT-29 is 30.8 µM (inactive); with HCT-116 it was 19.5 µM (inactive); in the test on MCF7 it was 23.6 µM (inactive); in the test on SK-MEL-2, 18.7 µM (inactive); in the test on NCI-H226, 33.7 µM (inactive); in the test on CCRF-CEM, 11.3 µM (inactive). Further, the GI50 in the test with OVCAR-4 was 29.5 µM (inactive); in the test with DU-145, 32.5 µM (inactive); in the test with SF-539 it was 50.2 µM (inactive); with MDA-MB-231, 24.6 µM (inactive); in the test with SK-MEL-5, 11.8 µM (inactive); with M14, 23.8 µM (inactive). Further, the GI50 was 33.1 µM (inactive) in the test on IGROV-1 and 23 µM (inactive) with SK-MEL-28.
As for `CC1(C)N=c2c(ncn2Cc2ccccc2)=C(C(N)=O)N1`, the GI50 in the test on UACC-257, in the test on Hs-578T, in the test with 786-0, in the test with SF-295, with A498 and in the test with KM12 was > 100 µM (inactive) throughout. The GI50 in the test with HT-29, with HCT-116, with MCF7, in the test with SK-MEL-2, in the test with NCI-H226 and in the test on CCRF-CEM was > 100 µM (inactive) in each case. The GI50 in the test with OVCAR-4, in the test with DU-145, in the test with SF-539, with MDA-MB-231, with SK-MEL-5 and in the test with M14 was > 100 µM (inactive) throughout. The GI50 in the test on IGROV-1 and in the test with SK-MEL-28 was > 100 µM (inactive) each time.
Regarding `COc1cc(C2c3cc4c(cc3OC(NCc3ccccc3)C2C)OCO4)cc(OC)c1OC` (stereo not given), the GI50 is 6.92 µM (inactive) in the test with UACC-257; 0.279 µM (active) in the test on Hs-578T; 0.357 µM (active) in the test with 786-0; 0.219 µM (active) with SF-295; 0.667 µM (active) in the test with A498; 0.377 µM (active) in the test on KM12. The GI50 in the test on HT-29 is 0.337 µM (active); in the test on HCT-116, 0.364 µM (active); in the test on MCF7 it was 0.439 µM (active); with SK-MEL-2 it was 0.675 µM (active); in the test on NCI-H226, 0.853 µM (active); in the test with CCRF-CEM it was 0.39 µM (active). For the same compound, the GI50 in the test on OVCAR-4 is 0.644 µM (active); with DU-145, 0.406 µM (active); in the test with SF-539, 0.273 µM (active); in the test with MDA-MB-231 it was 0.303 µM (active); in the test on SK-MEL-5 it was 0.261 µM (active); in the test on M14, 0.442 µM (active). Also, the GI50 in the test with IGROV-1 is 0.448 µM (active); in the test on SK-MEL-28 it was 4.04 µM (inactive).
